Laboratory results published in the supplement of paper PMC10307832.

Key:
Assay in all cases: relative viability (nuclei count vs DMSO), 5 days (fraction); higher = more cells survive
[1] = compound: Cc1ccc(NC(=O)c2ccc(CN3CCN(C)CC3)cc2)cc1Nc1nccc(-c2cccnc2)n1 [Imatinib] + Cc1nc(NC(=O)N2CCC[C@H]2C(N)=O)sc1-c1ccnc(C(C)(C)C(F)(F)F)c1 [Alpelisib] (partner 2 µM)
Summary of the method: (§1)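 For relative viability, nuclei counts in treated wells were divided by those in vehicle wells. Lung cancer cell lines had been pin-tool dosed in 1536-well plates the day after seeding and cultured for 5 days, then fixed and stained in one step (final 0.05% Triton X-100, 1% formaldehyde, 1 ug/ml Hoechst) and imaged at 4×. Doses were one drug alone or a fixed anchor-drug dose plus five library-drug doses (not always all listed) in √10 steps, and values are duplicate-plate medians.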

[2] = compound: Cc1ccc(NC(=O)c2ccc(CN3CCN(C)CC3)cc2)cc1Nc1nccc(-c2cccnc2)n1 [Imatinib] + CCNC(=O)c1noc(-c2cc(C(C)C)c(O)cc2O)c1-c1ccc(CN2CCOCC2)cc1 [Luminespib] (partner 0.01 µM)
Summary of the method: as §1

[3] = compound: Cc1ccc(NC(=O)c2ccc(CN3CCN(C)CC3)cc2)cc1Nc1nccc(-c2cccnc2)n1 [Imatinib] + CC1(C)CCC(c2ccc(Cl)cc2)=C(CN2CCN(c3ccc(C(=O)NS(=O)(=O)c4ccc(N[C@H](CCN5CCOCC5)CSc5ccccc5)c(S(=O)(=O)C(F)(F)F)c4)cc3)CC2)C1 [Navitoclax] (partner 0.5 µM)
Summary of the method: as §1

[4] = compound: Cc1ccc(NC(=O)c2ccc(CN3CCN(C)CC3)cc2)cc1Nc1nccc(-c2cccnc2)n1 [Imatinib] + CS(=O)(=O)CCNCc1ccc(-c2ccc3ncnc(Nc4ccc(OCc5cccc(F)c5)c(Cl)c4)c3c2)o1 [Lapatinib] (partner 2 µM)
Summary of the method: as §1

Cell Line | relative viability ([1]; first compound 0.02 µM) | relative viability ([1]; first compound 0.2 µM) | relative viability ([1]; first compound 0.6325 µM) | relative viability ([1]; first compound 2 µM) | relative viability ([2]; first compound 0.02 µM) | relative viability ([2]; first compound 0.2 µM) | relative viability ([2]; first compound 0.6325 µM) | relative viability ([2]; first compound 2 µM) | relative viability ([3]; first compound 0.02 µM) | relative viability ([3]; first compound 0.2 µM) | relative viability ([3]; first compound 0.6325 µM) | relative viability ([3]; first compound 2 µM) | relative viability ([4]; first compound 0.02 µM) | relative viability ([4]; first compound 0.6325 µM) | relative viability ([4]; first compound 2 µM) | relative viability ([4]; first compound 0.2 µM) | relative viability ([4]; first compound 0.06325 µM) | relative viability ([1]; first compound 0.06325 µM) | relative viability ([3]; first compound 0.06325 µM) | relative viability ([2]; first compound 0.06325 µM)
201T | 1.03 | 1.07 | 1.02 | 0.993 | 1.09 | 1.11 | 0.96 | 1.03 | 1.24 | 1.19 | 1.2 | 1.18 | 0.993 | 0.989 | 0.989 |  |  |  |  | 
A-427 | 1.11 |  | 1.1 | 1.06 | 1.06 | 0.868 | 0.903 | 0.9 | 1.05 | 0.998 | 0.945 | 0.949 |  | 1.12 | 0.952 | 1.05 |  |  |  | 
ABC-1 | 1.1 | 1.35 | 1.13 | 0.888 | 0.911 | 0.445 | 0.326 |  |  |  |  |  | 1.25 | 0.312 | 1.11 | 1.31 | 0.727 |  |  | 
BEN | 1.1 | 0.93 | 1.05 | 1.03 | 0.402 | 0.29 | 0.355 | 0.156 | 0.0684 | 0.0665 | 0.0553 | 0.0529 |  | 0.697 | 0.54 | 0.725 | 0.465 | 0.785 | 0.0589 | 
CAL-12T | 1.47 | 1.42 | 1.17 | 1.14 | 0.365 | 0.363 | 0.397 | 0.198 | 1.44 | 1.21 | 1.38 | 0.974 | 0.631 | 0.705 | 0.667 | 0.938 | 0.609 | 1.62 | 1.32 | 
COR-L23 | 0.794 | 0.969 | 0.806 | 0.902 | 0.806 | 0.79 | 0.802 | 0.654 | 1.11 | 1.5 | 1.04 | 1.03 | 1.13 | 0.922 | 0.829 | 1.41 | 0.791 | 1.02 | 1.32 | 0.709
COR-L 105 | 1.29 | 1.18 | 0.882 | 1.01 | 0.696 | 0.844 | 0.632 | 0.732 | 1.01 | 0.756 | 0.743 | 0.605 | 0.398 | 0.368 | 0.385 | 0.351 | 0.361 | 1.35 | 0.879 | 
Calu-6 | 1.1 | 1.11 | 1.01 | 0.946 |  |  |  |  | 0.976 | 0.777 | 0.85 | 0.814 | 1.24 | 1.16 | 1.13 | 1.27 | 1.23 |  | 0.804 | 
